From patent US11702630B2, “In vitro methods of differentiating stem cells into neurons and neurons generated using the same” (The J. David Gladstone Institutes, a testamentary trust …, priority 2016, dated 2023)

Experiments:
Type in all cases: cell-based, human
[1] = test system: hPSCs; test: Flow cytometry of CHX10 at day 17 of V2a interneuron differentiation
Procedure: hPSCs were seeded in mTeSR supplemented with 10 μM ROCK inhibitor and dual SMAD inhibitors 0.2 μM LDN193189 and 10 μM SB431542 ([…], Cambridge, Mass.) at 5,000-100,000 cells/cm^2 onto 24-well plates coated with Matrigel. On day 3, medium was changed to mTeSR supplemented with dual SMAD inhibitors only. On day 5, the base medium was switched to neural induction medium (DMEM F:12 (Corning), N2 supplement (Life Technologies, Carlsbad, Calif.), L-Glutamine (VWR), 2 μg/ml heparin (Sigma Aldrich, St. Louis, Mo.), non-essential amino acids (VWR), penicillin-streptomycin (VWR) supplemented with fresh 0.4 μg/ml ascorbic acid (Sigma Aldrich) and 10 ng/ml brain derived neurotrophin factor (BDNF, R&D Systems, Minneapolis, Minn.)) supplemented with dual SMAD inhibitors and 10 nM-10 μM retinoic acid (Sigma Aldrich). […] Medium was changed every 2 to 3 days throughout the differentiation, with fresh supplements added each time for up to 17 days.

[2] = test system: hPSCs; test: Total number of cells and yield of CHX10+ cells per input pluripotent cell at day 17; details: for number of viable cells per 24-well culture at day 17: 100 nM RA and 100 nM pur, FIG. 2B
Procedure: hPSCs were seeded in mTeSR supplemented with 10 μM ROCK inhibitor and dual SMAD inhibitors 0.2 μM LDN193189 and 10 μM SB431542 (StemGent, Cambridge, Mass.) at 5,000-100,000 cells/cm^2 onto 24-well plates coated with Matrigel. On day 3, medium was changed to mTeSR supplemented with dual SMAD inhibitors only. On day 5, the base medium was switched to neural induction medium (DMEM F:12 (Corning), N2 supplement (Life Technologies, Carlsbad, Calif.), L-Glutamine (VWR), 2 μg/ml heparin (Sigma Aldrich, St. Louis, Mo.), non-essential amino acids (VWR), penicillin-streptomycin (VWR) supplemented with fresh 0.4 μg/ml ascorbic acid (Sigma Aldrich) and 10 ng/ml brain derived neurotrophin factor (BDNF, R&D Systems, Minneapolis, Minn.)) supplemented with dual SMAD inhibitors and 10 nM-10 μM retinoic acid (Sigma Aldrich). On day 7, dual SMAD inhibition was ceased and 10 nM-10 μM retinoic acid, 10 nM-10 μM pur (EMD Millipore, Darmstast, Germany) and 100 nM-10 μM N—[N-(3,5-Difluorophenacetyl)-L-alanyl]-S-phenylglycine t-butyl ester (DAPT) were added to the neural induction medium. Medium was changed every 2 to 3 days throughout the differentiation, with fresh supplements added each time for up to 17 days.

[3] = test system: pluripotent stem cells; test: Wnt activation in the V2a interneuron protocol, % CHX10+ cells; details: FIG. 20A
Procedure: (§1) For the “D0 CHIR treated” group, the GSK3 inhibitor, 2 μM CHIR990201 was added into the V2a interneuron protocol from day 0 to day 7. For the “D-2 CHIR treated” group, pluripotent stem cells were initially seeded at a higher density (120 k cells/cm^2) in the presence of 2 μM CHIR990201 for two days. The cells were then dissociated and re-plated at 25 k/cm^2 to begin the V2a interneuron protocol. CHIR990201 was kept in the media composition from day 0 to day 7. Further culture and analysis proceeded as previously described.

[4] = test system: pluripotent stem cells; test: Wnt activation in the V2a interneuron protocol, gene expression of cervical and thoracic markers; details: FIG. 20B
Procedure: Samples were lysed and RNA was extracted using the E.Z.N.A. Total RNA Kit (Omega Biotek, Norcross, Ga.). RNA (500 ng) was reverse-transcribed into cDNA using the iScript cDNA synthesis kit (BioRad, Hercules, Calif.). RT-qPCR was performed using Fast SYBR Green Master Mix (Life Technologies) and the primers listed in Table 1 below were annealed at 61° C. on the Step One Plus Real-Time PCR System (Life Technologies). Fold changes were calculated using the ΔΔCt method. For high throughput gene expression analysis, Fluidigm was used. Preamplified cDNA samples and primers were mixed with Sso Fast EvaGreen Supermix (BioRad) then loaded onto a 96.96 Dynamic Array integrated fluidic circuit (IFC) and ran on a BioMark HD system.
as §1

[5] = 2 μM CHIR added at D0, day 0 to day 7
[6] = 2 μM CHIR added at D-2 and passage with CHIR, kept to day 7

Structure (SMILES): CC1=C(/C=C/C(C)=C/C=C/C(C)=C/C(=O)O)C(C)(C)CCC1 [RA, retinoic acid]
- CHX10+ population at day 17 ([1]; RA 100 nM starting at day 5, pur 1 μM and DAPT 5 μM from day 7, FIG. 1C): ~6%

Structure (SMILES): C[C@H](NC(=O)Cc1cc(F)cc(F)c1)C(=O)NC(C(=O)OC(C)(C)C)c1ccccc1 (some centres unmarked) [DAPT]
- CHX10+ population at day 17 ([1]; DAPT 5 μM from day 7, RA and pur 100 nM each, FIG. 1E): ~15%
- CHX10+ population at day 17 ([1]; DAPT 1 μm from day 7, RA and pur 100 nM each, FIG. 1E): ~15%
- increase in number of CHX10+ cells per input pluripotent cell ([2]; 1 μM DAPT compared with 5 μM DAPT, FIG. 2C): ~50%
- number of viable cells per 24-well culture at day 17 ([2]; DAPT 1 μM): 4.40 million cells
- number of viable cells per 24-well culture at day 17 ([2]; DAPT 5 μM): 2.85 million cells

Structure (SMILES): Cc1cnc(-c2cnc(NCCNc3ccc(C#N)cn3)nc2-c2ccc(Cl)cc2Cl)[nH]1 [CHIR, 6-[[2-[[4-(2,4-Dichlorophenyl)-5-(5-methyl-1H-imidazol-2-yl)-2-pyrimidinyl]amino]ethyl]amino]-3-pyridinecarbonitrile]
- % of CHX10+ cells [3, 5]: did not decrease
- % of CHX10+ cells [3, 6]: greatly increased
- cervical and thoracic gene expression [4, 5]: slightly increased
- cervical and thoracic gene expression [4, 6]: increased

Structure (SMILES): c1ccc2c(Oc3nc(Nc4ccc(N5CCOCC5)cc4)c4ncn(C5CCCCC5)c4n3)cccc2c1 [pur, 9-Cyclohexyl-N-[4-(4-morpholinyl)phenyl]-2-(1-naphthalenyloxy)-9H-purin-6-amine]
- Chx10+ cells after 17 days of differentiation ([1]; pur 100 nM from day 7, 100 nM RA and 5 μM DAPT, FIG. 1D): ~30%
